ChEMBL document CHEMBL1132857, “Synthesis and binding studies of some epibatidine analogues” (Bioorg Med Chem Lett, 2000)
pIC50: −log10 of the molar value.

How the values were obtained:
[1] = molecular target: 5-hydroxytryptamine receptor 1B (Rattus norvegicus) (UniProt P28564); experiment: Inhibition of [3H]5-HT binding to 5-hydroxytryptamine 1B receptor in rat striatum; Less active; assay type: tissue-based
[2] = molecular target: T1, 5-hydroxytryptamine receptor 1A (Rattus norvegicus) (UniProt P19327); experiment: Inhibition of [3H]8-hydroxy-2-dipropylamino-1,2,3,4-tetrahydronaphthalene binding to 5-hydroxytryptamine 1A receptor in hippocampus region of rat brain; Less active; assay type: tissue-based
T1 sequence (whole entry): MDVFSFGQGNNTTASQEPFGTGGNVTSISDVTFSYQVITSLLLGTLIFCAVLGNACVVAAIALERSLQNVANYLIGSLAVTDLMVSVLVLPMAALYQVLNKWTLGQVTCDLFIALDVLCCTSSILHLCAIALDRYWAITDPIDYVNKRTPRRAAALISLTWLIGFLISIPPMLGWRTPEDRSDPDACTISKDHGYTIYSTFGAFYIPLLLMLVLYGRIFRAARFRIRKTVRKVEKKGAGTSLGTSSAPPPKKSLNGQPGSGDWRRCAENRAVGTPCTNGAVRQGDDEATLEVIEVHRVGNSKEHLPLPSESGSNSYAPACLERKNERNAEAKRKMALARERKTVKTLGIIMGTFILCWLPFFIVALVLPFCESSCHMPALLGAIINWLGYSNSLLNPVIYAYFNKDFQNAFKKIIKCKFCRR

[3] = molecular target: T2, Muscarinic acetylcholine receptor M2 (Rattus norvegicus) (UniProt P10980); experiment: Inhibition of binding of [3H]quinuclidinyl benzilate to Muscarinic acetylcholine receptor M2 in rat heart atria at 10e-5 M of compound concentration; Less active
T2 sequence (whole entry): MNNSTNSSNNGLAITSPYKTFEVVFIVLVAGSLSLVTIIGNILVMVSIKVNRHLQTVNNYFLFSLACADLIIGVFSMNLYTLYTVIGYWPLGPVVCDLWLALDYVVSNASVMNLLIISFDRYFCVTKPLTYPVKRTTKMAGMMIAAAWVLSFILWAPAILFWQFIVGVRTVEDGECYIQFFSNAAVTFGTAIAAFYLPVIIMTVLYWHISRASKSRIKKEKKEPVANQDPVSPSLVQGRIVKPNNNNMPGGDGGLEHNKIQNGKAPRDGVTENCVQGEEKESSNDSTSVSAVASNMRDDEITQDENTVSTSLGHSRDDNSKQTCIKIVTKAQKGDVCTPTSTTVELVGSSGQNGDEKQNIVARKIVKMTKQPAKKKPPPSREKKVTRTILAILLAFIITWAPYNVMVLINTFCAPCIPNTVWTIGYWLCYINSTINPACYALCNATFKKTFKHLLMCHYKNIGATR

[4] = molecular target: T3, Muscarinic acetylcholine receptor M1 (Rattus norvegicus) (UniProt P08482); experiment: Inhibition of binding of [3H]quinuclidinyl benzilate to Muscarinic acetylcholine receptor M1 in rat brain cortex at 10e-5 M of compound concentration; Less active; assay type: tissue-based
T3 sequence (whole entry): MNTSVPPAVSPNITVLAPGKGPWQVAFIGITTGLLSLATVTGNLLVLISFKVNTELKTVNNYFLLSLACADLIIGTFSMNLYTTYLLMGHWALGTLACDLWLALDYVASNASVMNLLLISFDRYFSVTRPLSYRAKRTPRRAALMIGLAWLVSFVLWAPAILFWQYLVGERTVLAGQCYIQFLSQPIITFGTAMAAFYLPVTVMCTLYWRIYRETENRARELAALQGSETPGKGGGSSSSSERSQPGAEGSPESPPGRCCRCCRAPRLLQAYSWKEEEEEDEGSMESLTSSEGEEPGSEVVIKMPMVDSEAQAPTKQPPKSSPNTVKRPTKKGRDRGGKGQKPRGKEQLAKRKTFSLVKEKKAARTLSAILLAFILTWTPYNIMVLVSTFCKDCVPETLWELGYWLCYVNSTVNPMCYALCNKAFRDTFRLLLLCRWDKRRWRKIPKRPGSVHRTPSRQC

[5] = species: Rattus norvegicus; experiment: Inhibition of binding of [3H]-nicotine to neural nicotinic cholinergic receptor in rat brain membranes at 10e-5 M of compound concentration; Less active; assay type: cell membranes
[6] = species: Rattus norvegicus; experiment: Inhibition of binding of [3H]nicotine to neural nicotinic cholinergic receptor in rat brain membranes at 10e-5 M of compound concentration; Less active; assay type: cell membranes
[7] = molecular target: T4, Muscarinic acetylcholine receptor M2 (Rattus norvegicus, UniProt P10980)
T4 sequence (P10980 whole entry): T2 sequence (whole entry)

[8] = Inhibition of binding of [3H]nicotine to neural nicotinic cholinergic receptor in rat brain membranes at 10e-5 M of compound concentration; assay type: cell membranes
[9] = molecular target: T5, Muscarinic acetylcholine receptor M1 (Rattus norvegicus, UniProt P08482); assay type: tissue-based, Brain
T5 sequence (P08482 whole entry): T3 sequence (whole entry)

[10] = molecular target: T5, Muscarinic acetylcholine receptor M1; experiment: Inhibition of binding of [3H]quinuclidinyl benzilate to Muscarinic acetylcholine receptor M1 in rat brain cortex at 10e-5 M of compound concentration; assay type: tissue-based
[11] = molecular target: T5, Muscarinic acetylcholine receptor M1; experiment: Inhibition of binding of [3H]quinuclidinyl benzilate to Muscarinic acetylcholine receptor M1 in rat brain cortex at 10e-5 M of compound concentration; Residual radioligand binding higher than 80%; assay type: tissue-based
[12] = molecular target: T4, Muscarinic acetylcholine receptor M2; experiment: Inhibition of binding of [3H]quinuclidinyl benzilate to Muscarinic acetylcholine receptor M2 in rat heart atria at 10e-5 M of compound concentration
[13] = molecular target: T2, Muscarinic acetylcholine receptor M2 (Rattus norvegicus); experiment: Inhibition of binding of [3H]quinuclidinyl benzilate to Muscarinic acetylcholine receptor M2 in rat heart atria at 10e-5 M of compound concentration. Less active

Sequence of 5-hydroxytryptamine receptor 1B (Rattus norvegicus) (P28564 whole entry): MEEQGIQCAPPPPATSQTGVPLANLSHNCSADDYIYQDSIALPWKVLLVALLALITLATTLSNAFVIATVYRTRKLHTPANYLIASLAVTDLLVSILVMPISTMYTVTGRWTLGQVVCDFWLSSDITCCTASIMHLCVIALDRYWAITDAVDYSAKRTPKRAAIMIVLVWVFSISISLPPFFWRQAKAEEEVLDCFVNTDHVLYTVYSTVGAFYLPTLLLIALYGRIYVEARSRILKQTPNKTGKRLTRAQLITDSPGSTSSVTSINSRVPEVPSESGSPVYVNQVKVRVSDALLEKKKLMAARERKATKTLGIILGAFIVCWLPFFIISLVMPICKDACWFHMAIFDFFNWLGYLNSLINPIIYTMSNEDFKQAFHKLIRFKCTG

| SMILES | Activity [1] | Activity [2] | Activity [3] | Activity [4] | Activity [5] | pIC50 [8] | further results |
| --- | --- | --- | --- | --- | --- | --- | --- |
| CCOC(=O)OC1(c2ccc(Cl)nc2)CCN(C)CC1 | Weak activity | Weak activity | Weak activity | Weak activity | Weak activity |  |  |
| Clc1ccc(-c2cccnc2)cn1 | Weak activity | Weak activity | Weak activity | Weak activity |  |  | Activity [6]: Weak activity |
| CN1C2CCC1CC(O)(c1ccc(Cl)nc1)C2 (stereo unspecified) | Weak activity | Weak activity | Weak activity | Weak activity | Weak activity |  |  |
| C[n+]1cccc(-c2ccc(Cl)nc2)c1.[I-] |  |  |  |  |  | 7.11 | IC50 [7]: Not Active; IC50 [9]: Not Active |
| CN1C2C=C(c3cccc(Cl)n3)CC1CC2.O=C(O)/C=C\C(=O)O (stereo unspecified) |  |  |  |  |  | 6.58 | IC50 [7]: Not Active; pIC50 [10]: 5.73 |
| Clc1ccc(C2=CC3CCC(C2)N3)cn1.O=C(O)/C=C\C(=O)O (stereo unspecified) |  |  |  |  |  | 8.77 | IC50 [7]: Not Active; IC50 [11]: Not Active |
| CCOC(=O)N1C2CCC1CC(O)(c1ccc(Cl)cn1)C2 (stereo unspecified) | Weak activity | Weak activity | Weak activity | Weak activity |  |  | Activity [6]: Weak activity |
| CCOC(=O)N1C2CCC1CC(O)(c1ccc(Cl)nc1)C2 (stereo unspecified) | Weak activity | Weak activity | Weak activity | Weak activity | Weak activity |  |  |
| CN1C2C=C(c3ccc(Cl)cn3)CC1CC2 (stereo unspecified) | Weak activity | Weak activity | Weak activity | Weak activity | Weak activity |  |  |
| CN1C2CCC1CC(O)(c1cccc(Cl)n1)C2 (stereo unspecified) | Weak activity | Weak activity | Weak activity | Weak activity | Weak activity |  |  |
| CN1CCC=C(c2ccc(Cl)nc2)C1.O=C(O)/C=C\C(=O)O |  |  |  |  |  | 8.66 | pIC50 [12]: 5.45; IC50 [9]: Not Active |
| Cl.Clc1cccc(C2=CC3CCC(C2)N3)n1 (stereo unspecified) |  |  |  |  |  | 6.67 | IC50 [7]: Not Active; IC50 [11]: Not Active |
| CN1CC=C(c2ccc(Cl)nc2)CC1.Cl |  |  |  |  |  | 7.90 | IC50 [7]: Not Active; IC50 [9]: Not Active |
| CN1C2CCC1CC(O)(c1ccc(Cl)cn1)C2 (stereo unspecified) | Weak activity | Weak activity |  | Weak activity |  |  | Activity [13]: Weak activity; Activity [6]: Weak activity |
| CCOC(=O)N1C2CCC1CC(O)(c1cccc(Cl)n1)C2 (stereo unspecified) | Weak activity | Weak activity | Weak activity | Weak activity |  |  | Activity [6]: Weak activity |
| CN1C2C=C(c3ccc(Cl)nc3)CC1CC2 (stereo unspecified) |  |  |  |  |  | 8.74 | pIC50 [12]: 5.38; pIC50 [10]: 5.67 |
| CN1CCC(O)(c2ccc(Cl)nc2)CC1 | Weak activity | Weak activity | Weak activity | Weak activity | Weak activity |  |  |
